The test deals with Plasmodium falciparum. As to the kind of experiment: Antimalarial activity against chloroquine-resistant ring-stage Plasmodium falciparum Dd2 incubated for 72 hrs by SYBR green1 dye-based assay. Format: functional, organism-based. Conditions: for IC50: Dd2, 72 h.

The source made the active and inactive calls. No cut-off for these calls is given here.

Turning to `COC(=O)[C@@H](O)[C@H]1C(C)(C)[C@H](OC(C)=O)C[C@@H]2O[C@]34CC(=O)O[C@@H](c5ccoc5)[C@]3(C)[C@@H](OC(C)=O)[C@@H](C(=O)[C@@H]4C)[C@@]21C`, the result was inactive. In the case of `C=C1C2[C@H](O)C[C@@]3(C)[C@H](c4ccoc4)CC(=O)C[C@]13O[C@H]1[C@@H](OC(=O)[C@@H](C)CC)[C@H](O)C(C)(C)[C@H](CC(=O)OC)[C@@]21C`, the result was inactive. The same measure, in the same setting: the value for `COC(=O)C[C@H]1C(C)(C)[C@@H](O)[C@H](OC(C)=O)[C@@H]2OC3=C(C)C4=CC(=O)O[C@@H](c5ccoc5)[C@]4(C)[C@@H](O)[C@@H]3[C@@]21C` was “inactive”. In the case of `COC(=O)[C@@H](O)[C@H]1C(C)(C)[C@@H](O)[C@H](OC(=O)C(C)C)[C@@H]2O[C@]34CC(=O)O[C@@H](c5ccoc5)[C@]3(C)C[C@@H](C(=O)[C@@H]4C)[C@@]21C`, inhibition was half-maximal at 16.9 µM (IC50). In other words, the double-digit micromolar range. Take `COC(=O)[C@@H](O)[C@H]1C(C)(C)[C@H](OC(C)=O)C[C@@H]2O[C@]34CC(=O)O[C@@H](c5ccoc5)[C@]3(C)C[C@@H](C(=O)[C@@H]4C)[C@@]21C`: the outcome was inactive.

As to `C[C@@H]1CC[C@H]2[C@@H](C)C(=O)O[C@@H]3O[C@@]4(C)CC[C@@H]1[C@]32OO4` [ARTEMISININ], it took 0.013 µM to reach half-maximal inhibition (IC50). On the same count and under the same terms, the value for `C=C1[C@]2(O)CC[C@@]3(C)[C@H](c4ccoc4)CC(=O)C[C@]13O[C@H]1[C@@H](OC(=O)[C@H](C)CC)[C@H](O)C(C)(C)[C@H](CC(=O)OC)[C@]12C` was 16.3 µM. Regarding `COC(=O)[C@@H](O)[C@H]1C(C)(C)[C@H](OC(C)=O)C[C@@H]2OC3=C(C)C4=CC(=O)O[C@@H](c5ccoc5)[C@]4(C)[C@@H](OC(C)=O)[C@@H]3[C@@]21C`, the outcome was inactive. Still for that read-out and setting: the value for `COC(=O)[C@@H](O)[C@H]1C(C)(C)[C@H](OC(C)=O)[C@H](OC(C)=O)[C@@H]2O[C@]34CC(=O)O[C@@H](c5ccoc5)[C@]3(C)C[C@@H](C(=O)[C@@H]4C)[C@@]21C` was “inactive”. For `C=C1[C@@]23CC(=O)C[C@@H](c4ccoc4)[C@]2(C)C[C@@H](OC(C)=O)[C@]1(O)[C@@]1(C)[C@@H](O3)[C@@H](OC(=O)[C@H](C)CC)[C@H](O)C(C)(C)[C@@H]1CC(=O)OC`, the 50% inhibitory concentration (IC50) was found to be 23.1 µM. That is a double-digit micromolar value. As for `COC(=O)[C@@H](O)[C@H]1C(C)(C)[C@H](OC(C)=O)[C@H](OC(C)=O)[C@@H]2O[C@]34CC(=O)O[C@@H](c5ccoc5)[C@]3(C)[C@@H](OC(C)=O)[C@@H](C(=O)[C@@H]4C)[C@@]21C`, the result was inactive.

For the compound `C=C1C2[C@H](O)C[C@@]3(C)[C@H](c4ccoc4)CC(=O)C[C@]13O[C@H]1[C@@H](OC(=O)[C@H](C)CC)[C@H](O)C(C)(C)[C@H](CC(=O)OC)[C@@]21C`, the result was inactive. `COC(=O)C[C@H]1C(C)(C)[C@@H](O)[C@H](OC(=O)C(C)C)[C@@H]2O[C@]34CC(=O)O[C@@H](c5ccoc5)[C@]3(C)C[C@@H](C(=O)[C@@H]4C)[C@@]21C` registered a 50% inhibitory concentration (IC50) of 28 µM. With `C=C1[C@]2(O)CC[C@@]3(C)[C@H](c4ccoc4)CC(=O)C[C@]13O[C@H]1[C@@H](OC(=O)C(C)C)[C@H](O)C(C)(C)[C@H](CC(=O)OC)[C@]12C`, it took 20 µM to reach half-maximal inhibition (IC50). Regarding `C=C1[C@@]23CC(=O)C[C@@H](c4ccoc4)[C@]2(C)C[C@@H](OC(C)=O)[C@]1(O)[C@@]1(C)[C@@H](O3)[C@@H](OC(=O)C(C)C)[C@H](O)C(C)(C)[C@@H]1CC(=O)OC`, the result was inactive. Still for that read-out and setting: the entry for `COC(=O)C[C@H]1C(C)(C)[C@@H](OC(C)=O)[C@H](O)[C@@H]2OC3=C(C)C4=CC(=O)O[C@@H](c5ccoc5)[C@]4(C)[C@@H](O)[C@@H]3[C@@]21C` is “inactive”.

The compound `C=C1[C@]2(O)CC[C@@]3(C)[C@H](c4ccoc4)CC(=O)C[C@]13O[C@H]1[C@@H](OC(=O)[C@@H](C)CC)[C@H](O)C(C)(C)[C@H](CC(=O)OC)[C@]12C` showed an IC50 of 12.3 µM.

For orientation: IC50 means the concentration that inhibits the measured activity by half. A lower IC50 goes with greater potency.

The record behind these values is ChEMBL document CHEMBL4619768, “Limonoids from Cipadessa baccifera” (J Nat Prod, 2020).
